For one assay, the system named is chronic pain. The settings on record: in vivo; cited from earlier work.
The test system of the next assay is rats. Particulars: rat, in vivo; cited from earlier work.
In assay [1] the target is T1, human T-type channel alpha-1H (CaV 3.2) (Homo sapiens, UniProt O95180).
T1 construct: expressed in transfected cells; host or cells: HEK 293
The experiment in a line: Ca2+ Influx Assay (cell-based fluorescent, FDSS). The settings on record: HEK 293 cells expressing human CaV 3.2. The method in brief: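 HEK293 cells stably expressing human CaV3.2, loaded with Fluo-4-AM 1 h at 37 °C. Compound added 4.5 min before potassium ionophore, then high-K+ depolarization with fluorescence monitored on FDSS. IC50 from 7-point dose-response, duplicate wells.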

Each structure is given as a SMILES string.

T1 sequence (O95180 whole entry): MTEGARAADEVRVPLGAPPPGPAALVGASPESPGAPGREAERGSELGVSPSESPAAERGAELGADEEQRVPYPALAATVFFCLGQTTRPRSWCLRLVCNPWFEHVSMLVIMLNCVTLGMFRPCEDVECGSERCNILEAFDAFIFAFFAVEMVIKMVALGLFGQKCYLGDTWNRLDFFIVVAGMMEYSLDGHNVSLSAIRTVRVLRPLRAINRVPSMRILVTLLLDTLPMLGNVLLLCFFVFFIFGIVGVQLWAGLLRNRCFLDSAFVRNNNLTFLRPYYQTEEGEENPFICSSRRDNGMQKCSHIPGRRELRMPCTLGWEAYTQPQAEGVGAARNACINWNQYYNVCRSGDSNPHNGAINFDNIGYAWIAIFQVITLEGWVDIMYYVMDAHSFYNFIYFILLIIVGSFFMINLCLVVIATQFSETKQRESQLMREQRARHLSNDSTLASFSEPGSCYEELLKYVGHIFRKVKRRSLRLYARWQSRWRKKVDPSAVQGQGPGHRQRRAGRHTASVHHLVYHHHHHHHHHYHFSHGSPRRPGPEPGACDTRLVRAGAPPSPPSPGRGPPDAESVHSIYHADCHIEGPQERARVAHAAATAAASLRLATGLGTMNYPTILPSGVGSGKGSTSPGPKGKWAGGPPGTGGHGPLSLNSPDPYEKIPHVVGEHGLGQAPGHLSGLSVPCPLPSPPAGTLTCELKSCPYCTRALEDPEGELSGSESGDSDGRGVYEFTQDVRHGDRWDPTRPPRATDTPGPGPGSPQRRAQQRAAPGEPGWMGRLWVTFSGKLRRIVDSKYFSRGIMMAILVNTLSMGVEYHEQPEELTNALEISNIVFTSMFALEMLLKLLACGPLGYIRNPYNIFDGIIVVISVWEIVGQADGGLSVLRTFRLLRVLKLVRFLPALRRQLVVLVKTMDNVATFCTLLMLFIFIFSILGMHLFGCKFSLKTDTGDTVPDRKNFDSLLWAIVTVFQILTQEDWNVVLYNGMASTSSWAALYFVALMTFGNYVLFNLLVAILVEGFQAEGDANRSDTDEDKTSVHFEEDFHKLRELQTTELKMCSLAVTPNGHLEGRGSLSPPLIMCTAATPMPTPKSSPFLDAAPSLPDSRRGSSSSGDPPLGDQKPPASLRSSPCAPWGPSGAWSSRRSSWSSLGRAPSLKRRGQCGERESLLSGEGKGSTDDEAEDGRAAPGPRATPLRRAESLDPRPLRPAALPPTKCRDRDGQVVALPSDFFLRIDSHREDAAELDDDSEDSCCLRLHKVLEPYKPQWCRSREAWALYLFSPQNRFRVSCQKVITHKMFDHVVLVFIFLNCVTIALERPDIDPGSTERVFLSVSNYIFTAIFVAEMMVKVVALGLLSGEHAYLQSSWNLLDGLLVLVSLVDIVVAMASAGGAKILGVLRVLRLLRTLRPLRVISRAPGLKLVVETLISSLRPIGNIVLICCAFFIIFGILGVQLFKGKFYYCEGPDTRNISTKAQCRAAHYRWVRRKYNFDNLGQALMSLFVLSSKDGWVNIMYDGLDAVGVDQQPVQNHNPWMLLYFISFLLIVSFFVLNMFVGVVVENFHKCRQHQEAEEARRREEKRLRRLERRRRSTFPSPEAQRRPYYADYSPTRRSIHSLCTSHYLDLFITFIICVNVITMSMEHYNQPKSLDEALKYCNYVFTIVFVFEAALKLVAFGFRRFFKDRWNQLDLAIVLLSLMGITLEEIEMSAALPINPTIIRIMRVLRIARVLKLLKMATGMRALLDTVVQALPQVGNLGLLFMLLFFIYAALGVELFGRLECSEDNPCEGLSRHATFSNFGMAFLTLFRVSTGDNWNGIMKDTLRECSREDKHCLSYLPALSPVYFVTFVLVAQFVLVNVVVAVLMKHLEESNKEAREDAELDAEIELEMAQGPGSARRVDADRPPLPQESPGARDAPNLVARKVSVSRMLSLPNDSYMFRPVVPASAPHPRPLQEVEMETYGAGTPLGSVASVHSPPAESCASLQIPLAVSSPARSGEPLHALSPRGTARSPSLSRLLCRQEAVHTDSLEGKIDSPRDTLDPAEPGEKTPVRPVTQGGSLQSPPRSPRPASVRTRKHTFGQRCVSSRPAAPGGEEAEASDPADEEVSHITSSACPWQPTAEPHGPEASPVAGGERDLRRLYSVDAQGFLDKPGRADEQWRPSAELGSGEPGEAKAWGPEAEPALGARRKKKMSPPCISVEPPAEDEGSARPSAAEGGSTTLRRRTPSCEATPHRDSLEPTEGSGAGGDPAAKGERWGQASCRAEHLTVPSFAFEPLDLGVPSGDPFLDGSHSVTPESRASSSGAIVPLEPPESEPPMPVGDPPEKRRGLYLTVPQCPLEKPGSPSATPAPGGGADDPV

For `CCN(CC)CC(=O)Nc1c(C)cccc1C` [lidocaine], the “effect on chronic pain” value in the assay on chronic pain was “effective to treat chronic pain”.

With `NC1=N[C@H](O)[C@H]2[C@H]3O[C@]4(O)O[C@@H]([C@@H](O)[C@@]2(N1)[C@@H]4O)[C@]3(O)CO` [TTX, tetrodotoxin], the “effect on mechanical allodynic behavior” value in the assay on rats is recorded as “significantly reduces mechanical allodynic behavior”.

For `C[C@@H](NC(=O)C1CC1c1ccc2ccn(CC3(C)COC3)c2c1)c1ccc(OCC(F)(F)F)nc1` (stereo in doubt) [Example 213, trans-2-(1-((3-methyloxetan-3-yl)methyl)-1H-indol-6-yl)-N-((R)-1-(6-(2,2,2-trifluoro-ethoxy)pyridin-3-yl)ethyl)cyclopropanecarboxamide], the half-inhibitory concentration (IC50) (as a rule, the concentration that inhibits the measured activity by half) in assay [1] was at most 300 nM.

In turn, `C[C@@H](NC(=O)[C@@H]1C[C@H]1c1cc2ccccc2[nH]1)c1ccc(OCC(F)(F)F)nc1` (relative stereo) [Example 224, (1R*,2R*)-2-(1H-indol-2-yl)-N-((R)-1-(6-(2,2,2-trifluoroethoxy)pyridin-3-yl)ethyl)cyclopropanecarboxamide] displayed an IC50 in assay [1] of at most 300 nM.

In assay [1], `COc1ccc(C2CC2C(=O)N[C@H](C)c2ccc(OCC(F)(F)F)cn2)cc1C` (stereo in doubt) [Example 202, trans-2-(4-methoxy-3-methylphenyl)-N-((R)-1-(5-(2,2,2-trifluoroethoxy)pyridin-2-yl)ethyl)cyclopropanecarboxamide] yielded an IC50 of at most 300 nM.

`COc1cccc([C@H]2C[C@@H]2C(=O)N[C@H](C)c2ccc(OCC(F)(F)F)cn2)c1` (relative stereo) [Example 258, (1S*,2S*)-2-(3-methoxyphenyl)-N-((R)-1-(5-(2,2,2-trifluoroethoxy)pyridin-2-yl)ethyl)cyclopropanecarboxamide]: the IC50 in assay [1] was at most 300 nM.

Consider `Cc1cccc([C@H]2C[C@@H]2C(=O)N[C@H](C)c2cnc(OCC(F)(F)F)cn2)c1` (relative stereo) [Example 273, (1S*,2S*)-2-m-tolyl-N-((R)-1-(5-(2,2,2-trifluoroethoxy)pyrazin-2-yl)ethyl)cyclopropanecarboxamide], for which, in assay [1], the half-inhibitory concentration (IC50) was at most 300 nM.

In assay [1], `C[C@@H](NC(=O)C1CC1c1ccc2cccnc2c1)c1ccc(OCC(F)(F)F)nc1` (stereo in doubt) [Example 206, trans-2-(quinolin-7-yl)-N-((R)-1-(6-(2,2,2-trifluoroethoxy)pyridin-3-yl)ethyl)cyclopropanecarboxamide] registered an IC50 of at most 300 nM.

`C[C@@H](NC(=O)C1CC1c1cc2ccccc2cn1)c1ccc(OCC(F)(F)F)cn1` (stereo in doubt) [Example 172, trans-2-(isoquinolin-3-yl)-N-((R)-1-(5-(2,2,2-trifluoroethoxy)pyridin-2-yl)ethyl)cyclopropanecarboxamide] gave an IC50 in assay [1] of at most 300 nM.

`Cc1cccc([C@H]2C[C@@H]2C(=O)N[C@H](C)c2ccc(OCC(F)(F)F)cn2)c1` (relative stereo) [Example 251, (1S*,2S*)-2-m-tolyl-N-((R)-1-(5-(2,2,2-trifluoroethoxy)pyridin-2-yl)ethyl)cyclopropanecarboxamide] gave an IC50 in assay [1] of at most 300 nM.

Take `C[C@@H](NC(=O)C1CC1c1ccc2cc[nH]c2c1)c1ccc(OCC(F)(F)F)nc1` (stereo in doubt) [Example 147, trans-2-(1H-indol-6-yl)-N-((R)-1-(6-(2,2,2-trifluoroethoxy)pyridin-3-yl)ethyl)cyclopropanecarboxamide]: the IC50 in assay [1] was at most 300 nM.

For the compound `C[C@@H](NC(=O)[C@H]1C[C@@H]1COc1cccc(F)c1)c1ccc(OCC(F)(F)F)cn1` (relative stereo) [Example 294, (1S*,2S*)-2-((3-fluorophenoxy)methyl)-N-((R)-1-(5-(2,2,2-trifluoroethoxy)pyridin-2-yl)ethyl)cyclopropanecarboxamide], the IC50 in assay [1] is at most 300 nM.

With `C[C@@H](NC(=O)C1CC1c1nc2ccccc2n1C)c1ccc(OCC(F)(F)F)cn1` (stereo in doubt) [Example 243, trans-2-(1-methyl-1H-benzo[d]imidazol-2-yl)-N-((R)-1-(5-(2,2,2-trifluoroethoxy)pyridin-2-yl)ethyl)cyclopropanecarboxamide], the IC50 in assay [1] was at most 300 nM.
